pIC50: −log10 of the molar value. [invAb] = inverted abasic unit; m = 2'-O-methyl; r = 2'-OH (RNA); f = 2'-fluoro
Tests used:
rSCNN1A (r ENaCα) mRNA = experiment: Screening of ENaCα siNAs in Rat H-4-II-E cells (quantitative RT-PCR); assay type: cell-based; set-up: Percent Reduction of the r ENaCα mRNA relative to a non-targeting control siNA (NTCs) / Rat % KD (efficacy of ENaCα mRNA knockdown): concentration or dose not given beside the values; details: for Mean (rSCNN1A expression normalized to the level of rGAPDH) / Percent Reduction of the r ENaCα mRNA relative to a non-targeting control siNA (NTCs) / Avg ENaCα Expression (rSCNN1A) / Avg GAPDH Expression (rGAPDH): Rat H-4-II-E cells, n = 3; for Mean (rSCNN1A expression normalized to the level of rGAPDH) / Percent Reduction of the r ENaCα mRNA relative to a non-targeting control siNA (NTCs) / Avg GAPDH Expression (rGAPDH): 24 hours post-transfection; for Avg ENaCα Expression (rSCNN1A): harvested 24 hours post-transfection; for Avg GAPDH Expression (rGAPDH): housekeeping gene used for normalisation; for pIC50 / Rat % KD (efficacy of ENaCα mRNA knockdown): rat cell line; for pIC50: dose response, read-out: Rat IC50 (potency of ENaCα mRNA knockdown); for Rat % KD (efficacy of ENaCα mRNA knockdown): summary
Procedure, shortened: (§1)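 Rat H-4-II-E and mouse NIH 3T3 cells transfected with siNA–Lipofectamine 2000 complexes (25 nM siNA final; dose-response at constant lipid), screened at 24 h. qRT-PCR with ENaCα signal normalized to GAPDH or 36B4; % knockdown relative to non-targeting control siNA, triplicates; IC50 from sigmoidal variable-slope fit.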

mSCNN1A mRNA = experiment: Screening of ENaCα siNAs in mouse NIH 3T3 cells (quantitative RT-PCR); assay type: cell-based; set-up: Percent Reduction of the mSCNN1A mRNA relative to a non-targeting control siNA / Mouse % KD (efficacy of ENaCα mRNA knockdown): concentration or dose not given beside the values; details: for Mean (mSCNN1A expression normalized to the level of m36B4) / Percent Reduction of the mSCNN1A mRNA relative to a non-targeting control siNA / Avg ENaCα Expression (mSCNN1A) / Avg 36B4 Expression: mouse NIH 3T3 cells, n = 3; for Mean (mSCNN1A expression normalized to the level of m36B4) / Percent Reduction of the mSCNN1A mRNA relative to a non-targeting control siNA / Avg 36B4 Expression: 24 hours post-transfection; for Avg ENaCα Expression (mSCNN1A): harvested 24 hours post-transfection; for Avg 36B4 Expression: housekeeping gene used for normalisation; for pIC50 / Mouse % KD (efficacy of ENaCα mRNA knockdown): mouse cell line; for pIC50: dose response, read-out: Mouse IC50 (potency of ENaCα mRNA knockdown); for Mouse % KD (efficacy of ENaCα mRNA knockdown): summary
Procedure, shortened: as §1

| Substance | Mean (rSCNN1A expression normalized to the level of rGAPDH) (rSCNN1A (r ENaCα) mRNA) | Percent Reduction of the r ENaCα mRNA relative to a non-targeting control siNA (NTCs) (rSCNN1A (r ENaCα) mRNA) | Avg ENaCα Expression (rSCNN1A) (rSCNN1A (r ENaCα) mRNA) | Avg GAPDH Expression (rGAPDH) (rSCNN1A (r ENaCα) mRNA) | Mean (mSCNN1A expression normalized to the level of m36B4) (mSCNN1A mRNA) | Percent Reduction of the mSCNN1A mRNA relative to a non-targeting control siNA (mSCNN1A mRNA) | Avg ENaCα Expression (mSCNN1A) (mSCNN1A mRNA) | Avg 36B4 Expression (mSCNN1A mRNA) | pIC50 (rSCNN1A (r ENaCα) mRNA) | Rat % KD (efficacy of ENaCα mRNA knockdown) (rSCNN1A (r ENaCα) mRNA) | pIC50 (mSCNN1A mRNA) | Mouse % KD (efficacy of ENaCα mRNA knockdown) (mSCNN1A mRNA) |
| --- | --- | --- | --- | --- | --- | --- | --- | --- | --- | --- | --- | --- |
| B cuccuGuccAAccuGGGcA TTB / UGCccAGGuuGGAcAGGAGUU (sense CUCCUGUCCAACCUGGGCATT; antisense UGCCCAGGUUGGACAGGAGUU; siRNA; sense: DNA at AGT, 2'-fluoro at CU, [invAb] at 5' end, 3' end, backbone not given here; antisense: sugars from the 5' end rrrffmmmffmmmfmmmmmmm, backbone not given here) [Site 1738] | 0.63 | 31.1% | 21.90 | 35.43 | 0.13 | 5.1% | 2.63 | 20.59 |  |  |  |  |
| B uGGGcAGccAGuGGAGccu TTB / AGGcuccAcuGGcuGcccAUU (sense UGGGCAGCCAGUGGAGCCUTT; antisense AGGCUCCACUGGCUGCCCAUU; siRNA; sense: DNA at AGT, 2'-fluoro at CU, [invAb] at 5' end, 3' end, backbone not given here; antisense: sugars from the 5' end rrrffffmffmmffmfffmmm, backbone not given here) [Site 1751] | 0.59 | 36.0% | 26.87 | 45.19 | 0.10 | 27.6% | 2.85 | 28.97 |  |  |  |  |
| B uGGcuGuGccuAcAucuuc TTB / GAAGAuGuAGGcAcAGccAUU (sense UGGCUGUGCCUACAUCUUCTT; antisense GAAGAUGUAGGCACAGCCAUU; siRNA; sense: DNA at AGT, 2'-fluoro at CU, [invAb] at 5' end, 3' end, backbone not given here; antisense: sugars from the 5' end rrrmmfmfmmmfmfmmffmmm, backbone not given here) [Site 1386] | 0.48 | 48.3% | 17.21 | 36.31 | 0.09 | 31.9% | 2.35 | 25.00 |  |  |  |  |
| B uGuGGcuGuGccuAcAucu TTB / AGAuGuAGGcAcAGccAcAUU (sense UGUGGCUGUGCCUACAUCUTT; antisense AGAUGUAGGCACAGCCACAUU; siRNA; sense: DNA at AGT, 2'-fluoro at CU, [invAb] at 5' end, 3' end, backbone not given here; antisense: sugars from the 5' end rrrfmfmmmfmfmmffmfmmm, backbone not given here) [Site 1384] | 0.66 | 27.8% | 23.39 | 34.69 | 0.14 | −0.1% | 3.11 | 20.56 |  |  |  |  |
| B uGuGcAAccAGAAcAAAuc TTB / GAUuuGuucuGGuuGcAcAUU (chain 1 UGUGCAACCAGAACAAAUCTT; chain 2 GAUUUGUUCUGGUUGCACAUU; siRNA; B caps on sense ends, letter-case modifications not given here, further chemistry not given here) [Site 782] | 0.47 | 63.7% | 13.71 | 29.23 | 0.05 | 78.2% | 0.85 | 16.72 | 9.10 | 63% | 8.41 | 78% |
| B uGuccAAccuGGGcAGccA TTB / UGGcuGcccAGGuuGGAcAUU (sense UGUCCAACCUGGGCAGCCATT; antisense UGGCUGCCCAGGUUGGACAUU; siRNA; sense: DNA at AGT, 2'-fluoro at CU, [invAb] at 5' end, 3' end, backbone not given here; antisense: sugars from the 5' end rrrffmfffmmmffmmmfmmm, backbone not given here) [Site 1742] | 0.79 | 14.3% | 28.30 | 35.68 | 0.14 | 1.0% | 2.91 | 21.48 |  |  |  |  |
| B uccuGuccAAccuGGGcAG TTB / CUGcccAGGuuGGAcAGGAUU (sense UCCUGUCCAACCUGGGCAGTT; antisense CUGCCCAGGUUGGACAGGAUU; siRNA; sense: DNA at AGT, 2'-fluoro at CU, [invAb] at 5' end, 3' end, backbone not given here; antisense: sugars from the 5' end rrrfffmmmffmmmfmmmmmm, backbone not given here) [Site 1739] | 1.00 | −8.7% | 32.26 | 35.80 | 0.13 | 7.3% | 2.87 | 22.65 |  |  |  |  |
| B uuAuGGAuGAuGGuGGcuu TTB / AAGccAccAucAuccAuAAUU (sense UUAUGGAUGAUGGUGGCUUTT; antisense AAGCCACCAUCAUCCAUAAUU; siRNA; B caps on sense ends, letter-case modifications not given here, further chemistry not given here) [Site 1181] | 0.41 | 68.1% | 10.34 | 24.78 | 0.04 | 84.4% | 0.54 | 15.48 | 9.00 | 68% | 8.39 | 84% |

Reference: patent publication US20110288154A1, “RNA Interference Mediated Inhibition of Epithelial Sodium Channel (ENaC) Gene Expression Using Short Interfering Nucleic Acid (siNA)” (MERCK & CO., INC., priority 2008, published 2011)
